Results as given in ChEMBL document CHEMBL1156106 (J Med Chem, 2009).

What was measured:
Mus musculus [1] = assay: Antidepressant activity in ip dosed mouse assessed as stimulation of locomotor activity relative to cocaine; format: functional
Mus musculus [2] = assay: Antidepressant activity in ip dosed mouse assessed as stimulation of locomotor activity; format: functional
Rattus norvegicus [3] = assay: Effect on behavioural activity in rat assessed as cocaine-induced lever response at 50 mg/kg, ip pretreated with cocaine for 45 mins by drug-discrimination studies; format: functional; settings: route intraperitoneal
Rattus norvegicus [4] = assay: Effect on behavioural activity in rat assessed as cocaine-induced lever response at 25 mg/kg, ip pretreated with cocaine for 45 mins by drug-discrimination studies; format: functional; settings: route intraperitoneal
Mus musculus [5] = assay: Antidepressant activity in ip dosed mouse assessed as duration of locomotor activity; format: functional
Mus musculus [6] = assay: Antidepressant activity in ip dosed mouse assessed as time to reach peak stimulation of locomotor activity; format: functional
[7] = molecular target: Sodium-dependent serotonin transporter (Homo sapiens, UniProt P31645); assay: biochemical; format: cell-based, HEK293
Sequence of Sodium-dependent serotonin transporter (P31645 whole entry): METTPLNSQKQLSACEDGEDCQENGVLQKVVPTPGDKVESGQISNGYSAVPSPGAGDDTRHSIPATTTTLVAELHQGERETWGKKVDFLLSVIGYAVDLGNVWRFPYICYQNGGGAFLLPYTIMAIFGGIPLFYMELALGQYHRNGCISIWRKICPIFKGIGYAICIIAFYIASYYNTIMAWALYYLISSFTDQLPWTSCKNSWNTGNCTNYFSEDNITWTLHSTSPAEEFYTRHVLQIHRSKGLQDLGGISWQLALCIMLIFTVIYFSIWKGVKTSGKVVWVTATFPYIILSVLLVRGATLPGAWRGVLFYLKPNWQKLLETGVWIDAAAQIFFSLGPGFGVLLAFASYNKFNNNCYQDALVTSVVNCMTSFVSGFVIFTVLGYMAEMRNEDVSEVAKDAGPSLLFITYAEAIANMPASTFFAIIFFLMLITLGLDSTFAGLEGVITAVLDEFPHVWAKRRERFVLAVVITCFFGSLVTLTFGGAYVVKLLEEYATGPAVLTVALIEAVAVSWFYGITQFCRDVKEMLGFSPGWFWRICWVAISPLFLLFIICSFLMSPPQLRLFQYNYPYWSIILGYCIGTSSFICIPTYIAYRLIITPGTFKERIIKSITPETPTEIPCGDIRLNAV

Rattus norvegicus [8] = assay: Effect on behavioural activity in po dosed rat assessed as cocaine-induced lever response pretreated with cocaine by drug-discrimination studies; format: functional
Rattus norvegicus [9] = assay: Effect on behavioural activity in rat assessed as cocaine-induced lever response at 25 mg/kg, po pretreated with cocaine for 90 mins by drug-discrimination studies; format: functional
Rattus norvegicus [10] = assay: Effect on behavioural activity in rat assessed as cocaine-induced lever response at 10 mg/kg, ip pretreated with cocaine for 30 mins by drug-discrimination studies; format: functional; settings: route intraperitoneal
Rattus norvegicus [11] = assay: Effect on behavioural activity in rat assessed as cocaine-induced lever response at 10 mg/kg, po pretreated with cocaine for 45 mins by drug-discrimination studies; format: functional
Rattus norvegicus [12] = assay: Effect on behavioural activity in rat assessed as cocaine-induced lever response at 5 mg/kg, po pretreated with cocaine for 180 mins by drug-discrimination studies; format: functional
Rattus norvegicus [13] = assay: Effect on behavioural activity in rat assessed as cocaine-induced lever response at 25 mg/kg, po pretreated with cocaine for 180 mins by drug-discrimination studies; format: functional
Rattus norvegicus [14] = assay: Effect on behavioural activity in rat assessed as cocaine-induced lever response at 200 mg/kg, po pretreated with cocaine for 45 mins by drug-discrimination studies; format: functional
Rattus norvegicus [15] = assay: Effect on behavioural activity in rat assessed as cocaine-induced lever response at 25 mg/kg, ip pretreated with cocaine for 30 mins by drug-discrimination studies; format: functional; settings: route intraperitoneal
Rattus norvegicus [16] = assay: Effect on behavioural activity in rat assessed as cocaine-induced lever response at 200 mg/kg, po pretreated with cocaine for 360 mins by drug-discrimination studies; format: functional
Rattus norvegicus [17] = assay: Effect on behavioural activity in rat assessed as cocaine-induced lever response at 50 mg/kg, po pretreated with cocaine for 360 mins by drug-discrimination studies; format: functional
Rattus norvegicus [18] = assay: Effect on behavioural activity in rat assessed as cocaine-induced lever response at 200 mg/kg, po pretreated with cocaine for 90 mins by drug-discrimination studies; format: functional
Rattus norvegicus [19] = assay: Effect on behavioural activity in rat assessed as cocaine-induced lever response at 5 mg/kg, po pretreated with cocaine for 360 mins by drug-discrimination studies; format: functional
Rattus norvegicus [20] = assay: Effect on behavioural activity in rat assessed as cocaine-induced lever response at 5 mg/kg, po pretreated with cocaine for 90 mins by drug-discrimination studies; format: functional
Rattus norvegicus [21] = assay: Effect on behavioural activity in rat assessed as cocaine-induced lever response at 2.5 mg/kg, po pretreated with cocaine for 180 mins by drug-discrimination studies; format: functional
Rattus norvegicus [22] = assay: Effect on behavioural activity in rat assessed as cocaine-induced lever response at 100 mg/kg, po pretreated with cocaine for 90 mins by drug-discrimination studies; format: functional
Rattus norvegicus [23] = assay: Effect on behavioural activity in rat assessed as cocaine-induced lever response at 50 mg/kg, po pretreated with cocaine for 180 mins by drug-discrimination studies; format: functional
Rattus norvegicus [24] = assay: Effect on behavioural activity in rat assessed as cocaine-induced lever response at 10 mg/kg, po pretreated with cocaine for 360 mins by drug-discrimination studies; format: functional
Rattus norvegicus [25] = assay: Effect on behavioural activity in rat assessed as cocaine-induced lever response at 100 mg/kg, po pretreated with cocaine for 180 mins by drug-discrimination studies; format: functional
[26] = molecular target: Sodium-dependent noradrenaline transporter (Homo sapiens, UniProt P23975); assay: Displacement of [125I]RTI55 from cloned human NET expressed in HEK293 cells; format: cell-based
Sequence of Sodium-dependent noradrenaline transporter (P23975 whole entry): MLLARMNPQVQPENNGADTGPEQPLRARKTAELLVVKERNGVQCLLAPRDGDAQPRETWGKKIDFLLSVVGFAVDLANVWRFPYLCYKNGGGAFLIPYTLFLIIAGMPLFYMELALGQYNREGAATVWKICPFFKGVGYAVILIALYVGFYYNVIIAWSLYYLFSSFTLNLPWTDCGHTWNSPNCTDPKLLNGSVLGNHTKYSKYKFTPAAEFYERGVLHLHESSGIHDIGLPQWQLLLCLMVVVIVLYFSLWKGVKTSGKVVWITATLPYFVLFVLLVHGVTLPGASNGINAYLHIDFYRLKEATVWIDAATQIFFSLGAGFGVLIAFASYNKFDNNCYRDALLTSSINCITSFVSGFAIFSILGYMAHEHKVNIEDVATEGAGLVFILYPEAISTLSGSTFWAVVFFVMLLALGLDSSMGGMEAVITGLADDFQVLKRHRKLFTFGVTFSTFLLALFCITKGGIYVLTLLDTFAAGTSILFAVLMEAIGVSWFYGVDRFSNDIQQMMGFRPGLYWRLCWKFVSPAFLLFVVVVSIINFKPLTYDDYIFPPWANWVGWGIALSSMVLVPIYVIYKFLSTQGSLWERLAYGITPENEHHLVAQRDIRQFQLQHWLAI

Rattus norvegicus [27] = assay: Effect on behavioural activity in rat assessed as cocaine-induced lever response at 5 mg/kg, ip pretreated with cocaine for 30 mins by drug-discrimination studies; format: functional; settings: route intraperitoneal
Rattus norvegicus [28] = assay: Effect on behavioural activity in rat assessed as cocaine-induced lever response at 200 mg/kg, po pretreated with cocaine for 180 mins by drug-discrimination studies; format: functional
Rattus norvegicus [29] = assay: Effect on behavioural activity in rat assessed as cocaine-induced lever response at 2.5 mg/kg, po pretreated with cocaine for 45 mins by drug-discrimination studies; format: functional
Rattus norvegicus [30] = assay: Effect on behavioural activity in rat assessed as cocaine-induced lever response at 2.5 mg/kg, po pretreated with cocaine for 360 mins by drug-discrimination studies; format: functional
Rattus norvegicus [31] = assay: Effect on behavioural activity in rat assessed as cocaine-induced lever response at 25 mg/kg, po pretreated with cocaine for 360 mins by drug-discrimination studies; format: functional
Rattus norvegicus [32] = assay: Effect on behavioural activity in rat assessed as cocaine-induced lever response at 2.5 mg/kg, po pretreated with cocaine for 90 mins by drug-discrimination studies; format: functional
Rattus norvegicus [33] = assay: Effect on behavioural activity in rat assessed as cocaine-induced lever response at 50 mg/kg, po pretreated with cocaine for 45 mins by drug-discrimination studies; format: functional
Rattus norvegicus [34] = assay: Effect on behavioural activity in rat assessed as cocaine-induced lever response at 25 mg/kg, po pretreated with cocaine for 45 mins by drug-discrimination studies; format: functional
Rattus norvegicus [35] = assay: Effect on behavioural activity in rat assessed as cocaine-induced lever response at 100 mg/kg, po pretreated with cocaine for 45 mins by drug-discrimination studies; format: functional
Rattus norvegicus [36] = assay: Effect on behavioural activity in rat assessed as cocaine-induced lever response at 10 mg/kg, po pretreated with cocaine for 90 mins by drug-discrimination studies; format: functional
Rattus norvegicus [37] = assay: Effect on behavioural activity in rat assessed as cocaine-induced lever response at 10 mg/kg, po pretreated with cocaine for 180 mins by drug-discrimination studies; format: functional
Rattus norvegicus [38] = assay: Effect on behavioural activity in rat assessed as cocaine-induced lever response at 2.5 mg/kg, ip pretreated with cocaine for 30 mins by drug-discrimination studies; format: functional; settings: route intraperitoneal
Rattus norvegicus [39] = assay: Effect on behavioural activity in rat assessed as cocaine-induced lever response at 50 mg/kg, po pretreated with cocaine for 90 mins by drug-discrimination studies; format: functional
Rattus norvegicus [40] = assay: Effect on behavioural activity in rat assessed as cocaine-induced lever response at 100 mg/kg, po pretreated with cocaine for 360 mins by drug-discrimination studies; format: functional
Rattus norvegicus [41] = assay: Effect on behavioural activity in ip dosed rat assessed as cocaine-induced lever response pretreated with cocaine by drug-discrimination studies; format: functional
Rattus norvegicus [42] = assay: Effect on behavioural activity in rat assessed as cocaine-induced lever response at 5 mg/kg, po pretreated with cocaine for 45 mins by drug-discrimination studies; format: functional
Rattus norvegicus [43] = assay: Effect on behavioural activity in rat assessed as cocaine-induced lever response at 25 mg/kg, ip pretreated with cocaine for 75 mins by drug-discrimination studies; format: functional; settings: route intraperitoneal
Rattus norvegicus [44] = assay: Effect on behavioural activity in rat assessed as cocaine-induced lever response at 100 mg/kg, ip pretreated with cocaine for 75 mins by drug-discrimination studies; format: functional; settings: route intraperitoneal
Rattus norvegicus [45] = assay: Effect on behavioural activity in rat assessed as cocaine-induced lever response at 50 mg/kg, ip pretreated with cocaine for 75 mins by drug-discrimination studies; format: functional; settings: route intraperitoneal
Rattus norvegicus [46] = assay: Effect on behavioural activity in rat assessed as cocaine-induced lever response at 10 mg/kg, ip pretreated with cocaine for 75 mins by drug-discrimination studies; format: functional; settings: route intraperitoneal
Rattus norvegicus [47] = assay: Effect on behavioural activity in rat assessed as cocaine-induced lever response at 50 mg/kg, ip pretreated with cocaine for 50 mins by drug-discrimination studies; format: functional; settings: route intraperitoneal
Rattus norvegicus [48] = assay: Effect on behavioural activity in rat assessed as cocaine-induced lever response at 100 mg/kg, ip pretreated with cocaine for 50 mins by drug-discrimination studies; format: functional; settings: route intraperitoneal

CCCCCC(NC(C)(C)C)C(=O)c1cccc(Cl)c1 (centres undefined)
Activity (Mus musculus [1]): 90% | ED50 (Mus musculus [2]): 12.9 mg/kg | Activity (Rattus norvegicus [3]): 50.9% | Activity (Rattus norvegicus [4]): 1% | Time (Mus musculus [5]): 280 min | Time to peak locomotor stimulation (Mus musculus [6]): 60 min | Ki [7]: > 10 µM

CC(NC(C)(C)C)C(=O)c1cccc(Br)c1 (centres undefined)
ED50 (Rattus norvegicus [8]): 52.9 mg/kg | Activity (Rattus norvegicus [9]): 0% | Activity (Rattus norvegicus [10]): 21% | Activity (Rattus norvegicus [11]): 0% | Activity (Rattus norvegicus [12]): 0% | Activity (Rattus norvegicus [13]): 0% | Activity (Rattus norvegicus [14]): 100% | Activity (Rattus norvegicus [15]): 83.6% | Activity (Mus musculus [1]): 57% | Activity (Rattus norvegicus [16]): 34% | Activity (Rattus norvegicus [17]): 0% | Activity (Rattus norvegicus [18]): 100% | Activity (Rattus norvegicus [19]): 7% | Activity (Rattus norvegicus [20]): 15% | Activity (Rattus norvegicus [21]): 0% | Activity (Rattus norvegicus [22]): 56% | Activity (Rattus norvegicus [23]): 0% | Activity (Rattus norvegicus [24]): 0% | Activity (Rattus norvegicus [25]): 34% | Ki [26]: > 7.14 µM | Activity (Rattus norvegicus [27]): 34.4% | Activity (Rattus norvegicus [28]): 5% | ED50 (Mus musculus [2]): 13.5 mg/kg | Activity (Rattus norvegicus [29]): 13% | Activity (Rattus norvegicus [30]): 33% | Activity (Rattus norvegicus [31]): 0% | Activity (Rattus norvegicus [32]): 0% | Activity (Rattus norvegicus [33]): 51% | Activity (Rattus norvegicus [34]): 17% | Activity (Rattus norvegicus [35]): 67% | Time (Mus musculus [5]): 90 min | Activity (Rattus norvegicus [36]): 0% | Activity (Rattus norvegicus [37]): 0% | Time to peak locomotor stimulation (Mus musculus [6]): 0 min | Activity (Rattus norvegicus [38]): 0.3% | Ki [7]: > 10 µM | Activity (Rattus norvegicus [39]): 21% | Activity (Rattus norvegicus [40]): 14% | ED50 (Rattus norvegicus [41]): 39.6 mg/kg | Activity (Rattus norvegicus [42]): 0%

CCCCCCC(NC(C)(C)C)C(=O)c1cccc(Cl)c1 (centres undefined)
ED50 (Rattus norvegicus [8]): 46.9 mg/kg | Activity (Rattus norvegicus [9]): 0% | Activity (Rattus norvegicus [43]): 48.5% | Activity (Rattus norvegicus [44]): 67.2% | Activity (Rattus norvegicus [11]): 0% | Activity (Rattus norvegicus [13]): 0% | Activity (Mus musculus [1]): 94% | Activity (Rattus norvegicus [17]): 0% | Activity (Rattus norvegicus [23]): 25% | ED50 (Mus musculus [2]): 5.6 mg/kg | Activity (Rattus norvegicus [31]): 0% | Activity (Rattus norvegicus [33]): 83% | Activity (Rattus norvegicus [34]): 0% | Time (Mus musculus [5]): 130 min | Activity (Rattus norvegicus [45]): 49.9% | Activity (Rattus norvegicus [36]): 0% | Activity (Rattus norvegicus [37]): 0% | Time to peak locomotor stimulation (Mus musculus [6]): 110 min | Ki [7]: > 10 µM | Activity (Rattus norvegicus [46]): 0% | Activity (Rattus norvegicus [39]): 17%

Cc1cc(C(=O)C(C)NC(C)(C)C)ccc1Br (centres undefined)
Activity (Mus musculus [1]): 36% | Activity (Rattus norvegicus [47]): 16.7% | ED50 (Mus musculus [2]): 12.6 mg/kg | Activity (Rattus norvegicus [48]): 66.9% | Time (Mus musculus [5]): 240 min | Time to peak locomotor stimulation (Mus musculus [6]): 50 min
